These results are taken from US8969332B2, “Aryloxy dihalopropenyl ether compounds and uses thereof” (Sinochem Corporation, priority 2011, dated 2015).

Read-outs that look alike come from different tables or passages of the source.

One series relates to armyworm. Briefly: Insecticidal activity against armyworm in greenhouse (airbrush spraying of corn leaf discs). Format: in vivo. The conditions noted are these: 72 h; for control of the armyworm: 600 mg/L; for Mortality of armyworm (%) / mortality at 10 µg/mL / mortality at 100 µg/mL: parallel determination; for mortality at 10 µg/mL / mortality at 100 µg/mL: Mythimna separata, foliar. The protocol: (§1) Compounds were dissolved in mixed solvent (acetone:methanol=1:1), and diluted to required concentration with water containing 0.1% of tweed 80.
The method of spraying by airbrush: The corn leaves were made into plates of 2 cm diameter by use of punch. A test solution (0.5 ml) was sprayed by airbrush at the pressure of 0.7 kg/cm^2 to both sides of every plate. 10 Second instar larvae were put into the Petri-dishes after the leaf disc air-dried and 3 replicates were set thr each treatment. Then the insects were maintained in observation room (25° C., 60˜70% R.H.). Scores were conducted and mortalities were calculated after 72 h.

Series [1] deals with diamond back moth. Description: Insecticidal activity against diamond back moth in greenhouse (airbrush spraying of cabbage leaf discs). The series is classed as in vivo. The conditions noted are these: Plutella xylostella, foliar, 72 h, read-out: Mortality of diamond back moth (%). The method, then:
as §1
The method of spraying by airbrush: The cabbage leaves were made into plates of 2 cm diameter by use of punch. A test solution (0.5 ml) was sprayed by airbrush at the pressure of 0.7 kg/cm^2 to both sides of every plate. 10 Second instar larvae were put into the petri-dishes after the leaf disc air-dried and 3 replicates were set for each treatment. Then the insects were maintained in observation room (25° C., 60˜70% R.H.), Scores were conducted and mortalities were calculated after 72 h.

For a further series, the system named is Prodenia litura. The conditions noted are these: 500 ppm; cited from earlier work.
In another series the test system is Heliothis virescens. The conditions noted are these: 100 ppm; cited from earlier work.
Series [2] concerns beet armyworm. Briefly: Insecticidal activity against beet armyworm (24 well-plate artificial diet emulsion method). The conditions noted are these: Spodoptera exigua, 72 h, read-out: Mortality of beet armyworm (%). Format: in vivo. The method, then: as §1
24 well-plate artificial diet emulsion method: artificial food was added to each well of the 24 well-plate, after the artificial food was cooled, the prepared solution were added into the 24 well-plate according to the experimental design by order of chemical concentrations from low to high, by gently shaking the even emulsion film can be formed on the surface of the diet. 24 neat and healthy larvae were put into the 24 well-plate (one larvae each well) after the film was air-dried and 3 replicates were set for each treatment. Then the insects were maintained in observation room (25° C., 60˜70% R.H.). Scores were conducted and mortalities were calculated after 72 h.

The next series concerns housefly. Description: Insecticidal activity against housefly (diet incorporation test). Format: in vivo. The conditions noted are these: Musca domestica, 72 h, read-out: Mortality of housefly (%). The protocol:
Diet Incorporation Tests: the test compound was dissolved with 90% acetone to obtain the mother liquor after weigh accurately with an electronic balance. The required concentration solution was got by diluting to the mother liquor with a certain concentration milk powder solution according to the designed doses in the experiment. Then, the diluted concentration solution was evenly put into the petri dishes with diameter of 6 cm inside which filter paper was placed by using a transferring-liquid gun ([…], solution each petri dish). Finally the 3rd instars of larvae were put into petri dishes with 10 each petri dish, and 3 replicates were set for each treatment. Then the insects were maintained in observation room (25° C., 60˜70% R.H.). Scores were conducted and mortalities were calculated after 72 h.

Series [3] relates to beet armyworm. Briefly: Field trial against beet armyworm on cabbage. The series is classed as in vivo, Laphygma exigua. The conditions noted are these: 105 g a.i./hm^2, 10% EC. The protocol: The trial was carried out in rain shelter area of experimental field of Wuhan vegetable research institute, the test crop is cabbage (variety: Jingfeng NO. 1). The dosage of the invention compound 1 (Example 11, 10% EC, same as below) are 75, 105, 150 g a.i./hm^2. and the comparative agent pyridalyl (10% EC, commercially available, same as below) is 105 g a.i./hm^2. The agent was applied on 9 Oct. 2011. The application tool is Linong 16HD-400 type backpack spray. Evenly spraying to whole cabbage which is in rosette stage was conducted. Beet armyworm is mainly larvae. The plot area is 25 m^2 and 4 replicates and randomized block arrangement were set. The amount of spray liquid is 750 L/hm^2. It was sunny and there was no wind, with the highest temperature of 28° C. and the lowest of 15° C. on the day of the application. Chosen 10 plants from each plot and scored the larvae at different instars at fixing time. The base number was investigated before treatment. The number of living larvae was counted after 1 day, 3 days, 7 days and 14 days respectively after application and control efficacy was calculated.
(§2) Calculation Method: Decrease rate of insects (%)=(the number of insects before application−the number of insects after application) the number of insects before application×100 Control efficacy (%)=(decrease rate of insects in treated area decrease rate of insects in blank comparative area)/(100−decrease rate of insects in blank comparative area)×100

Series [4] concerns diamond back moth. Briefly: Field trial against diamond back moth on cabbage. Format: in vivo, Plutella xylostella. Conditions: 105 g a.i./hm^2, 10% EC. The protocol:
as §2
The trial was carried out in the test filed of Shenyang Research Institute of Chemical industry Ltd. The trial crop is cabbage (Variety: Zhonggan NO 8.). The dosage of the compound 1 are 75, 105, 150 g a.i./hm^2 and comparative agent pyridalyl is 105 g a.i./hm^2. The agent was applied once on 13 Jun. 2011. The application tool is Shandongweishi WS-16P type backpack manual sprayer. Evenly spraying to whole cabbage which is in rosette stage was conducted. Diamond back moth is originated at the peak time. The plot area is 10 m^2, 3 replicates and randomized block arrangement were set. The amount of spray liquid is 750 L/hm^2. It was sunny with the highest temperature of 29° C., and the lowest of 17° C. on the day of the application of the spray. The methods of investigation and calculation are the same as Example 13.

The subject of series [5] is cabbage butterfly (Pierisrapae Linne). Description: Field trial against cabbage butterfly. Format: in vivo. Conditions: 105 g a.i./hm^2, 10% EC. The method, then: as §2
The trial was carried out in a farmer's vegetable field in Xiangcheng District Suzhou City. The variety of the cabbage is Xinxia 50. The dosage of the compound 1 are 75, 105, 150 g a.i./hm^2 and the comparative agent pyridalyl is 105 g a.i./hm^2. The agent was applied on 26 May 2011. The application tool is Singaporean Linong HD-400 type backpack spray. Evenly spraying to whole cabbage which is at vegetative growth phase was conducted, Cabbage butterfly is at a peak time of 1-3 instars of larvae. The plot area is 15 m^2, 4 replicates and randomized block arrangement were set. The amount of spray liquid is 750 L/hm^2. It was from sunny to cloudy with the highest temperature of 22.6° C., and the lowest of 17.8° C. on the day of the application of the spray. Chosen 10 plants from each plot and scored the larvae at different instars at fixing time. The base number was investigated before treatment. The number of living larvae was counted after 1 day, 4 days, 7 days and 12 days respectively after application and control efficacy was calculated.
Calculation method: the same as Example 13.

[6] abbreviates: 6.25 mg/L, parallel determination.
Where [7] appears, read: 25 mg/L, parallel determination.
The mark [8] stands for this setting: 50 mg/L, parallel determination.

For the compound `FC(F)(F)c1cnc(Oc2ccc(OCCCOc3ccc(OCC=C(Cl)Cl)cc3Cl)cc2)c(Cl)c1` [Compound 84], the “control of the armyworm” value in the series with armyworm stood at 100%.
Turning to `FC(F)(F)c1ccc(Oc2ccc(OCCCOc3c(Cl)cc(OCC=C(Cl)Cl)c(Cl)c3Cl)cc2)nc1` [Compound 117], the “Mortality of armyworm (%)” value with armyworm (10 mg/L) and in the series with armyworm (100 mg/L) was 100% each time. The “control of the armyworm” value in the series on armyworm is 100%.
`ClC(Cl)=CCOc1cc(Cl)c(OCCCOc2ccc(Oc3ccccc3)cc2)c(Cl)c1` [Compound 38]: the “control of the armyworm” value in the series on armyworm was determined as 100%.
Turning to `ClC(Cl)=CCOc1cc(Cl)c(OCCCOc2ccc(OCc3cnc(Cl)s3)cc2)c(Cl)c1` [Compound 80], the “control of the armyworm” value in the series with armyworm amounted to 100%.
On the same count and under the same terms, the same measure for `FC(F)(F)c1cnc(Oc2ccc(OCCCOc3c(Cl)cc(OCC=C(Cl)Cl)c(Cl)c3Cl)cc2)c(Cl)c1` [Compound 118]: 100%.
Take `FC(F)(F)c1cnc(Oc2ccc(OCCCOc3c(Cl)cc(OCC=C(Cl)Cl)cc3Cl)cc2Cl)c(Cl)c1` [Compound D-1, reference compound]: the mortality at 6.25 µg/mL in the series with diamond back moth [1] (setting [6]) turned out to be 0%. In addition, in the series with diamond back moth [1] (setting [7]), the mortality at 25 µg/mL came out at 30%. Further, the mortality at 50 µg/mL in the series with diamond back moth [1] (setting [8]) is 80%. In the series on armyworm (10 mg/L), this compound registered a mortality at 10 µg/mL of 30%. Besides, the mortality at 100 µg/mL in the series with armyworm (100 mg/L) came out at 90%. The “control against Prodenia litura” value in the series with Prodenia litura is given as “above 80%”. Moreover, in the series with Heliothis virescens, the “control on Heliothis virescens” value is recorded as “above 80%”.
Regarding `CC(C)(C)n1ncc(Oc2ccc(OCCCOc3c(Cl)cc(OCC=C(Cl)Cl)cc3Cl)cc2)c(Cl)c1=O` [Compound 57], the “control of the armyworm” value in the series on armyworm is recorded as 100%.
For the compound `ClC(Cl)=CCOc1cc(Cl)c(OCCCOc2ccc(Oc3nc(Cl)c(Cl)cc3Cl)cc2)c(Cl)c1` [Compound 11], the “control of the armyworm” value with armyworm is given as 100%.
In the case of `FC(F)(F)c1cnc(Oc2ccc(OCCCOc3c(Cl)cc(OCC=C(Cl)Cl)cc3Cl)cc2)c(Cl)c1` [Compound 2], the mortality at 6.25 µg/mL in the series on diamond back moth [1] (setting [6]) amounted to 75%. For the same compound, in the series on diamond back moth [1] (setting [7]), the mortality at 25 µg/mL was determined as 100%. Further, the mortality at 50 µg/mL in the series on diamond back moth [1] (setting [8]) was determined as 100%.
Consider `ClC(Cl)=CCOc1cc(Cl)c(OCCCOc2ccc(Oc3nc4ccc(Cl)cc4o3)cc2)c(Cl)c1` [Compound 219], for which, in the series with armyworm, the “control of the armyworm” value is 100%. This compound also had a mortality at 10 µg/mL in the series on armyworm (10 mg/L) of 70%. Moreover, in the series on armyworm (100 mg/L), the mortality at 100 µg/mL stood at 100%.
For `Fc1cc(Cl)cnc1Oc1ccc(OCCCOc2c(Cl)cc(OCC=C(Cl)Cl)cc2Cl)cc1` [Compound 3], the “control of the armyworm” value in the series on armyworm was determined as 100%.
Still for that read-out and setting: for `FC(F)(F)c1ccc(Oc2ccc(OCCCOc3ccc(OCC=C(Cl)Cl)cc3Cl)cc2)nc1` [Compound 83] the value was 100%.
In the case of `FC(F)(F)c1ccc(OCCCOc2c(Cl)cc(OCC=C(Cl)Cl)cc2Cl)nc1` [Compound D-2, pyridalyl, reference compound], the mortality at 6.25 µg/mL in the series on diamond back moth [1] is 50%. Also, the mortality at 25 µg/mL in the series on diamond back moth [1] was found to be 75%. In addition, the mortality at 50 µg/mL with diamond back moth [1] turned out to be 90%. Moreover, the mortality at 2.5 µg/mL in the series with beet armyworm [2] stood at 16.7%. In addition, the mortality at 10 µg/mL in the series on beet armyworm [2] was 100%; in the series on housefly it was 0%. Further, the mortality at 20 µg/mL with housefly came out at 25%. For the same compound, the “Control efficiency (%)” value is on record as 70.76% in the series with beet armyworm [3] (1 day after treatment); 83.34% with beet armyworm [3] (3 days after treatment); 78.33% in the series with beet armyworm [3] (7 days after treatment); 61.21% in the series with beet armyworm [3] (14 days after treatment); 49.7% in series [5] (1 day after treatment); 84.3% in series [5] (4 day after treatment). The figures for the “Control efficiency (%)” value in series [5] (7 day after treatment) and in series [5] (12 days after treatment) were 88.5% and 75.8%, respectively. Besides, the results for the “Control efficacy (%)” value in the series on diamond back moth [4] (1 day after treatment), in the series with diamond back moth [4] (3 days after treatment) and with diamond back moth [4] (7 days after treatment) were 95.1%, 97.0% and 94.9%, respectively.
With `Fc1cccc(Cl)c1COc1ccc(OCCCOc2c(Cl)cc(OCC=C(Cl)Cl)cc2Cl)cc1` [Compound 72], the “control of the armyworm” value with armyworm was 100%.

A word on the mortality: it is the percentage killed.
